From patent EP4509511A1, “SUBSTITUTED SPIRO-ISOXAZOLINYL LACTAMS, SALTS THEREOF AND THEIR USE AS HERBICIDALLY ACTIVE SUBSTANCES” (Bayer Aktiengesellschaft, priority 2023, dated 2025)

Legend:
[1] = system: ECHCG; assay: Herbicidal pre-emergence action - Part I; type: in vivo, Echinochloa crus-galli; settings: visual grading after ca. 3 weeks vs untreated controls
Description: (§1) Seeds of mono- and dicotyledonous weed plants were sown in plastic pots (double sowings with one species of mono- and one species of dicotyledonous weed plants per pot), in sandy loam, and covered with soil. The compounds according to the invention, formulated in the form of wettable powders (WP) or as emulsifiable concentrates (EC), were applied to the surface of the covering soil as aqueous suspension or emulsion, with the addition of 0.5% of an additive, at an application rate of 600 1 of water per hectare (converted). Following treatment, the pots were placed in a greenhouse and kept under optimum growth conditions for the test plants. The visual grading of the damage to the test plants was carried out after ca. 3 weeks in comparison to untreated controls (herbicidaleffectinpercent(%):100%effect=plantshavediedoff,0%effect=ascontrolplants). [formula]
(§2) Tables A1 to A12, below, show the effects of selected compounds of the general formula (I) according to table 1 on various harmful plants and an application rate corresponding to 1280 g/ha or below obtained by the experimental procedure mentioned above. Table A1: pre-emergence activity at 1280g/ha against ABUTH in %

[2] = system: MATIN; assay: Herbicidal pre-emergence action - Part I; type: in vivo, Matricaria inodora; settings: 1280 g/ha, visual grading after ca. 3 weeks vs untreated controls
Description: as §1, §2

[3] = system: SETVI; assay: Herbicidal pre-emergence action - Part I; type: in vivo, Setaria viridis; settings: visual grading after ca. 3 weeks vs untreated controls
Description: as §1, §2

[4] = system: STEME; assay: Herbicidal pre-emergence action - Part I; type: in vivo, Stellaria media; settings: visual grading after ca. 3 weeks vs untreated controls
Description: as §1, §2

[5] = system: POAAN; assay: Herbicidal pre-emergence action - Part I; type: in vivo, Poa annua; settings: visual grading after ca. 3 weeks vs untreated controls
Description: as §1, §2

[6] = system: AMARE; assay: Herbicidal pre-emergence action - Part I; type: in vivo, Amaranthus retroflexus; settings: visual grading after ca. 3 weeks vs untreated controls
Description: as §1, §2

[7] = system: KCHSC; assay: Herbicidal pre-emergence action - Part I; type: in vivo, Kochia scoparia; settings: Table A10a, 1280 g/ha, visual grading after ca. 3 weeks vs untreated controls
Description: as §1, §2

[8] = system: DIGSA; assay: Herbicidal pre-emergence action - Part I; type: in vivo, Digitaria sanguinalis; settings: visual grading after ca. 3 weeks vs untreated controls
Description: as §1, §2

[9] = system: STEME; assay: Herbicidal post-emergence action - Part I; type: in vivo, Stellaria media; settings: one-leaf stage, rated visually after about 3 weeks vs untreated controls
Protocol: (§3) Seeds of mono- and dicotyledonous weed plants were placed in plastic pots in sandy loam soil (doubly sown with in each case one species of mono- or dicotyledonous weed plants per pot), covered with soil and cultivated in a greenhouse under controlled growth conditions. 2 to 3 weeks after sowing, the test plants were treated at the one-leaf stage. The compounds of the invention, formulated in the form of wettable powders (WP) or as emulsion concentrates (EC), were applied onto the green parts of the plants as aqueous suspension or emulsion with addition of 0.5% additive at a water application rate of 600 liters per hectare (converted). After the test plants had been kept in the greenhouse under optimum growth conditions for about 3 weeks, the activity of the preparations was rated visually in comparison to untreated controls. For example, 100% activity = the plants have died, 0% activity = like control plants. Tables B1 to B12, below, show the effects of selected compounds of the general formula (I) according to table 1 on various harmful plants and an application rate corresponding to 1280 g/ha or below obtained by the experimental procedure mentioned above. Table B1a: post-emergence activity at 1280g/ha against ABUTH in %

[10] = system: AMARE; assay: Herbicidal post-emergence action - Part I; type: in vivo, Amaranthus retroflexus; settings: 1280 g/ha, one-leaf stage, rated visually after about 3 weeks vs untreated controls
Protocol: as §3

[11] = system: ECHCG; assay: Herbicidal post-emergence action - Part I; type: in vivo, Echinochloa crus-galli; settings: one-leaf stage, rated visually after about 3 weeks vs untreated controls
Protocol: as §3

[12] = system: POAAN; assay: Herbicidal post-emergence action - Part I; type: in vivo, Poa annua; settings: 1280 g/ha, one-leaf stage, rated visually after about 3 weeks vs untreated controls
Protocol: as §3

[13] = system: VERPE; assay: Herbicidal post-emergence action - Part I; type: in vivo, Veronica persica; settings: 1280 g/ha, one-leaf stage, rated visually after about 3 weeks vs untreated controls
Protocol: as §3

[14] = system: ABUTH; assay: Herbicidal post-emergence action - Part II; type: in vivo, Abutilon theophrasti
Description: (§4) Seeds of mono- and dicotyledonous weed plants and crop plants were sown, in plastic or organic planting pots, in sandy loam, covered with soil and grown in a greenhouse under controlled growth conditions. 2 to 3 weeks after sowing, the test plants were sprayed in the single-leaf stage. The compounds according to the invention, formulated in form of wettable powders (WP) or as emulsifiable concentrates (EC), were sprayed onto the green plant parts as aqueous suspension or emulsion, with the addition of 0.5% of an additive, at an application rate of 600 1 of water/ha (converted). The test plants were placed in the greenhouse for ca. 3 weeks under optimum growth conditions, and then the effect of the preparations was assessed visually in comparison with untreated controls (herbicidal effect in percent (%): 100% effect = plants have died off, 0% effect = as control plants). Tables E1 to E10 below show the effects of selected compounds of the general formula (I) according to table 1 on various harmful plants and an application rate corresponding to 320 g/ha or below obtained by the experimental procedure mentioned above. Table E1a: post-emergence activity at 5g/ha against ABUTH in %

[15] = system: AMARE; assay: Herbicidal post-emergence action - Part II; type: in vivo, Amaranthus retroflexus
Description: as §4

[16] = system: MATIN; assay: Herbicidal post-emergence action - Part II; type: in vivo, Matricaria inodora; settings: 20 g/ha; Table E4b
Description: as §4

[17] = system: PHBPU; assay: Herbicidal post-emergence action - Part II; type: in vivo, Pharbitis purpurea
Description: as §4

[18] = system: SETVI; assay: Herbicidal post-emergence action - Part II; type: in vivo, Setaria viridis; settings: 20 g/ha; Table E7b
Description: as §4

[19] = system: VERPE; assay: Herbicidal post-emergence action - Part II; type: in vivo, Veronica persica; settings: 20 g/ha; Table E8b
Description: as §4

[20] = system: VIOTR; assay: Herbicidal post-emergence action - Part II; type: in vivo, Viola tricolor; settings: 20 g/ha; Table E9b
Description: as §4

[21] = system: ZEAMX; assay: Post-emergence effects on crop plants; type: in vivo, Zea mays; settings: crop plant
Description: as §4, with “F1” for “E1”, “F5” for “E10”, “crop” for “harmful”, “[…]:” for “E1a:”, “ZEAMX” for “ABUTH”

[22] = system: TRZAS; assay: Post-emergence effects on crop plants; type: in vivo, Triticum aestivum; settings: crop plant
Description: as §4, with “F1” for “E1”, “F5” for “E10”, “crop” for “harmful”, “[…]:” for “E1a:”, “ZEAMX” for “ABUTH”

[23] = system: LOLRI; assay: Herbicidal pre-emergence action - Part I; type: in vivo, Lolium rigidum; settings: 1280 g/ha, visual grading after ca. 3 weeks vs untreated controls
Description: as §1, §2

[24] = system: KCHSC; assay: Herbicidal post-emergence action - Part I; type: in vivo, Kochia scoparia; settings: 1280 g/ha, one-leaf stage, rated visually after about 3 weeks vs untreated controls
Protocol: as §3

[25] = system: POLCO; assay: Herbicidal post-emergence action - Part II; type: in vivo, Polygonum convolvulus; settings: 20 g/ha; Table E6
Description: as §4

[26] = system: SETVI; assay: Herbicidal post-emergence action - Part I; type: in vivo, Setaria viridis; settings: 1280 g/ha, one-leaf stage, rated visually after about 3 weeks vs untreated controls
Protocol: as §3

Row | Compound | pre-emergence activity at 1280g/ha against ECHCG in % [1] [%] | pre-emergence activity at 1280g/ha against MATIN in % [2] [%] | pre-emergence activity at 1280g/ha and against SETVI in % [3] [%] | pre-emergence activity at 320g/ha against STEME in % [4] [%] | pre-emergence activity at 1280g/ha against STEME in % [4] [%] | pre-emergence activity at 320g/ha and against POAAN in % [5] [%] | pre-emergence activity at 1280g/ha and against POAAN in % [5] [%] | pre-emergence activity at 1280g/ha against AMARE in % [6] [%] | pre-emergence activity at 1280g/ha against KCHSC in % [7] [%] | pre-emergence activity at 1280g/ha against DIGSA in % [8] [%] | post-emergence activity at 1280g/ha against AMARE in % [10] [%] | post-emergence activity at 1280g/ha against ECHCG in % [11] [%] | post-emergence activity at 1280g/ha against POAAN in % [12] [%] | post-emergence activity at 1280g/ha against VERPE in % [13] [%] | post-emergence activity against ABUTH ([14]; 20 g/ha, Table E1b) [%] | post-emergence activity against AMARE ([15]; 5 g/ha, Table E2a) [%] | post-emergence activity against AMARE ([15]; 20 g/ha, Table E2b) [%] | post-emergence activity against MATIN [16] [%] | post-emergence activity against PHBPU ([17]; 5 g/ha, Table E5a) [%] | post-emergence activity against PHBPU ([17]; 20 g/ha, Table E5b) [%] | further results
1 | O=C1N(Cc2c(F)cccc2F)CCC12CC(c1ccccc1F)=NO2 (racemic) [Compound I-27, 7-(2,6-Difluorobenzyl)-3-(2-fluorophenyl)-1-oxa-2,7-diazaspiro[4.4]non-2-en-6-one] | 100 | 90 | 90 | 90 | 90 | 100 | 100 | 90 | 90 | 90 | 90 |  |  |  |  |  |  |  |  |  | pre-emergence activity at 320g/ha against AMARE in % ([6]; 320 g/ha): 90%; post-emergence activity at 320g/ha against STEME in % ([9]; 320 g/ha): 90%; post-emergence activity at 1280g/ha against STEME in % ([9]; 1280 g/ha): 90%
2 | Cc1ccccc1CN1CCCC2(CC(c3sccc3C)=NO2)C1=O (racemic) [Compound I-4, 7-(2-Methylbenzyl)-3-(3-methyl-2-thienyl)-1-oxa-2,7-diazaspiro[4.5]dec-2-en-6-one] |  |  | 90 |  |  | 100 | 100 |  |  |  | 90 | 90 | 90 | 90 |  |  |  |  |  |  | 
3 | Cn1c(C(F)(F)F)cc(=O)n(-c2cc(C3=NOC4(CCCNC4=O)C3)c(Cl)cc2F)c1=O (racemic) [Compound I-67] |  |  |  |  |  |  |  |  |  |  |  |  |  |  | 100 | 100 | 100 | 100 | 100 | 100 | post-emergence activity against ABUTH ([14]; 5 g/ha, Table E1a): 80%; post-emergence activity against SETVI [18]: 80%; post-emergence activity against VERPE [19]: 80%; post-emergence activity against VIOTR [20]: 100%; post-emergence activity against ZEAMX ([21]; 5 g/ha, Table F1a): 20%; post-emergence activity against TRZAS ([22]; 5 g/ha, Table F2a): 20%
4 | Cc1ccsc1C1=NOC2(CCN(Cc3ccccc3F)C2=O)C1 (racemic) [Compound I-17, 7-(2-Fluorobenzyl)-3-(3-methyl-2-thienyl)-1-oxa-2,7-diazaspiro[4.4]non-2-en-6-one] | 90 | 90 | 100 | 90 | 100 |  | 100 | 90 |  |  |  |  |  |  |  |  |  |  |  |  | pre-emergence activity at 1280g/ha against LOLRI in % [23]: 100%; pre-emergence activity at 80g/ha against STEME in % ([4]; 80 g/ha): 90%; post-emergence activity at 1280g/ha against KCHSC in % [24]: 90%
5 | COC(=O)CN1CCCC2(CC(c3cc(-n4c(=O)cc(C(F)(F)F)n(C)c4=O)c(F)cc3Cl)=NO2)C1=O (racemic) [Compound I-57] |  |  |  |  |  |  |  |  |  |  |  |  |  |  | 100 | 100 | 100 | 100 | 100 | 100 | post-emergence activity against POLCO [25]: 100%; post-emergence activity against VERPE [19]: 100%; post-emergence activity against VIOTR [20]: 100%; post-emergence activity against ZEAMX ([21]; 5 g/ha, Table F1a): 20%; post-emergence activity against ZEAMX ([21]; 20 g/ha, Table F1b): 20%; post-emergence activity against TRZAS ([22]; 5 g/ha, Table F2a): 20%; post-emergence activity against TRZAS ([22]; 20 g/ha, Table F2b): 20%
6 | Cc1ccsc1C1=NOC2(CCCN(Cc3cccc(F)c3F)C2=O)C1 (racemic) [Compound I-3, 7-(2,3-Difluorobenzyl)-3-(3-methyl-2-thienyl)-1-oxa-2,7-diazaspiro[4.5]-dec-2-en-6-one] | 100 | 90 | 100 | 90 | 90 | 100 | 100 | 90 | 90 | 100 | 90 | 90 | 90 | 90 |  |  |  |  |  |  | pre-emergence activity at 320g/ha against ECHCG in % ([1]; 320 g/ha): 100%; pre-emergence activity at 1280g/ha against LOLRI in % [23]: 100%; pre-emergence activity at 320g/ha and against SETVI in % ([3]; 320 g/ha): 100%; pre-emergence activity at 320g/ha against DIGSA in % ([8]; 320 g/ha): 90%; post-emergence activity at 320g/ha against ECHCG in % ([11]; 320 g/ha): 90%; post-emergence activity at 1280g/ha against SETVI in % [26]: 90%; post-emergence activity at 1280g/ha against KCHSC in % [24]: 90%
